Source: patent US11992481B2, “Use of 2-substituted indazoles for the treatment and prophylaxis of autoimmune diseases” (Bayer Pharma Aktiengesellschaft, priority 2016, dated 2024)

What follows are compounds tested on THP-1 cells (assay: TNF-α secretion in THP-1 cells (LPS-triggered)). Details: Homo sapiens, 0.05 μg/ml LPS, 17 h, read-out: IC50 with respect to the secretion of TNF-α in THP-1 cells.
Format: cell-based
Procedure: With the aid of this test, it is possible to test substances for their ability to inhibit secretion of TNF-α (tumour necrosis factor alpha) in THP-1 cells (human monocytic acute leukaemia cell line). […] In this test, TNF-α secretion is triggered by incubation with bacterial lipopolysaccharide (LPS).
The cells were incubated at room temperature for 15 min. 2-2.5 μl of 0.1 μg/ml LPS (Sigma, Escherichia coli 055:B5, Cat. No. L5418) dissolved in cell culture medium (final concentration 0.05 μg/ml) were then dispensed into each well. As neutral control, cells were treated with 0.05 μg/ml LPS and 1% DMSO and, as inhibitor control, with 1% DMSO only.
The amount of TNF-α was determined using the TNF-alpha HTRF Detection Kit (Cisbio, Cat. No. 62TNFPEB/C). To this end, 2 μl of the detection solution in each case, consisting of anti-TNF-α-XL665 conjugate and anti-TNF-α-cryptate conjugate dissolved in the reconstitution buffer in accordance with the manufacturer's instructions, were added for the HTRF (Homogeneous Time-Resolved Fluorescence) test. After the addition, the mixture was incubated either at room temperature for 3 h or at 4° C. overnight.
The activity of the substances is expressed as the ratio between neutral and inhibitor control in percent. The IC50 values were calculated using a 4-parameter fit.

First: CC(C)(O)c1cccc(C(=O)Nc2cc3cn(CCCC(F)(F)F)nc3cc2C(C)(C)O)n1 [Example 21, 6-(2-Hydroxypropan-2-yl)-N-[6-(2-hydroxypropan-2-yl)-2-(4,4,4-trifluorobutyl)-2H-indazol-5-yl]pyridine-2-carboxamide]
Second: CC(C)(O)c1cc2nn(CCCC(F)(F)F)cc2cc1NC(=O)c1cccc(C(F)(F)F)n1 [Example 16, N-[6-(2-Hydroxypropan-2-yl)-2-(4,4,4-trifluorobutyl)-2H-indazol-5-yl]-6-(trifluoromethyl)pyridine-2-carboxamide]
The IC50 of the first is 9-fold higher: 1.8 nM for the first, 0.2 nM for the second.

`O=C(Nc1cc2cn(CCO)nc2cc1CO)c1cccc(C(F)(F)F)n1` [Example 7, N-[2-(2-Hydroxyethyl)-6-(hydroxymethyl)-2H-indazol-5-yl]-6-(trifluoromethyl)pyridine-2-carboxamide] and `COCCn1cc2cc(NC(=O)c3cccc(C(F)(F)F)n3)c(CO)cc2n1` [Example 2, N-[6-(Hydroxymethyl)-2-(2-methoxyethyl)-2H-indazol-5-yl]-6-(trifluoromethyl)pyridine-2-carboxamide] are within 1.5-fold of each other in IC50: 16.4 nM for the first, 15.1 nM for the second.

Compared with `O=C(Nc1cc2cn(CC3COC3)nc2cc1CO)c1cccc(C(F)(F)F)n1` [Example 9, N-[6-(Hydroxymethyl)-2-(oxetan-3-ylmethyl)-2H-indazol-5-yl]-6-(trifluoromethyl)pyridine-2-carboxamide], `CC(C)(O)c1cc2nn(CC3COC3)cc2cc1NC(=O)c1cccc(C(F)(F)F)n1` [Example 8, N-[6-(2-Hydroxypropan-2-yl)-2-(oxetan-3-ylmethyl)-2H-indazol-5-yl]-6-(trifluoromethyl)pyridine-2-carboxamide] is 6.5-fold lower in IC50: 6.5 nM for the first, 1 nM for the second.

First: CC(C)(O)c1cc2nn(CCCOCC(F)(F)F)cc2cc1NC(=O)c1cccc(C(F)(F)F)n1 [Example 18, N-{6-(2-Hydroxypropan-2-yl)-2-[3-(2,2,2-trifluoroethoxy)propyl]-2H-indazol-5-yl}-6-(trifluoromethyl)pyridine-2-carboxamide]
Second: CC(C)(O)c1cc2nn(CCCOC(F)(F)F)cc2cc1NC(=O)c1cccc(C(F)(F)F)n1 [Example 17, N-{6-(2-Hydroxypropan-2-yl)-2-[3-(trifluoromethoxy)propyl]-2H-indazol-5-yl}-6-(trifluoromethyl)pyridine-2-carboxamide]
The IC50 of the first is 1.7-fold lower: 0.3 nM for the first, 0.5 nM for the second. The first is the more potent here.

Going from `Cc1nc(C(=O)Nc2cc3cn(CCC(C)(C)O)nc3cc2C(C)(C)O)ccc1F` [Example 19, 5-Fluoro-N-[2-(3-hydroxy-3-methylbutyl)-6-(2-hydroxypropan-2-yl)-2H-indazol-5-yl]-6-methylpyridine-2-carboxamide] to `Cc1cccc(C(=O)Nc2cc3cn(CCC(C)(C)O)nc3cc2C(C)(C)O)n1` [Example 20, N-[2-(3-Hydroxy-3-methylbutyl)-6-(2-hydroxypropan-2-yl)-2H-indazol-5-yl]-6-methylpyridine-2-carboxamide], the IC50 rises from 0.1 nM to 0.2 nM (2-fold).

`CC(C)(O)c1cc2nn(CCCS(C)(=O)=O)cc2cc1NC(=O)c1cccc(C(F)(F)F)n1` [Example 10, N-{6-(2-Hydroxypropan-2-yl)-2-[3-(methylsulphonyl)propyl]-2H-indazol-5-yl}-6-(trifluoromethyl)pyridine-2-carboxamide] and `CC(C)(O)c1cc2nn(CCCO)cc2cc1NC(=O)c1cccc(C(F)(F)F)n1` [Example 6, N-[6-(2-Hydroxypropan-2-yl)-2-(3-hydroxypropyl)-2H-indazol-5-yl]-6-(trifluoromethyl)pyridine-2-carboxamide] are within 1.5-fold of each other in IC50: 1 nM for the first, 0.9 nM for the second.

`CC(C)(O)c1cc2nn(CCS(C)(=O)=O)cc2cc1NC(=O)c1cccc(C(F)F)n1` [Example 14, 6-(Difluoromethyl)-N-{6-(2-hydroxypropan-2-yl)-2-[2-(methylsulphonyl)ethyl]-2H-indazol-5-yl}pyridine-2-carboxamide] and `CC(C)(O)c1cc2nn(CCCO)cc2cc1NC(=O)c1cccc(C(F)F)n1` [Example 15, 6-(Difluoromethyl)-N-[6-(2-hydroxypropan-2-yl)-2-(3-hydroxypropyl)-2H-indazol-5-yl]pyridine-2-carboxamide] are the same in IC50: 0.2 nM for the first, 0.2 nM for the second.

Going from `COCCn1cc2cc(NC(=O)c3cccc(C(F)(F)F)n3)c(C(C)(C)O)cc2n1` [Example 1, N-[6-(2-Hydroxypropan-2-yl)-2-(2-methoxyethyl)-2H-indazol-5-yl]-6-(trifluoromethyl)pyridine-2-carboxamide] to `CC(C)(O)c1cc2nn(CCO)cc2cc1NC(=O)c1cccc(C(F)(F)F)n1` [Example 5, N-[2-(2-Hydroxyethyl)-6-(2-hydroxypropan-2-yl)-2H-indazol-5-yl]-6-(trifluoromethyl)pyridine-2-carboxamide], the IC50 rises from 1 nM to 5.4 nM (5.4-fold). The first is the more potent here.

First: CC(C)(O)CCn1cc2cc(NC(=O)c3cccc(C(F)F)n3)c(C(C)(C)O)cc2n1 [Example 13, 6-(Difluoromethyl)-N-[2-(3-hydroxy-3-methylbutyl)-6-(2-hydroxypropan-2-yl)-2H-indazol-5-yl]pyridine-2-carboxamide]
Second: COCCCn1cc2cc(NC(=O)c3cccc(C(F)(F)F)n3)c(CO)cc2n1 [Example 4, N-[6-(Hydroxymethyl)-2-(3-methoxypropyl)-2H-indazol-5-yl]-6-(trifluoromethyl)pyridine-2-carboxamide]
The IC50 of the first is 56-fold lower: 0.1 nM for the first, 5.6 nM for the second. The first is the more potent here.
